Experimental data as given in PubChem BioAssay (NCI).
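Where inhibition never reached the appropriate level, the endpoint shown equals the highest concentration tested. Otherwise, values were interpolated linearly from a five-concentration, 48-hour dose response in 96-well plates. At the GI50, growth is halved. TGI denotes the concentration required for complete inhibition of growth.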

What was measured:
Assay in all cases: growth of human tumour cells (NCI), 48 h
786-0 renal = tested on: 786-0 renal
A498 renal = tested on: A498 renal
ACHN renal = tested on: ACHN renal
BT-549 breast = tested on: BT-549 breast
CCRF-CEM leukemia = tested on: CCRF-CEM leukemia
COLO 205 colon = tested on: COLO 205 colon
DU-145 prostate = tested on: DU-145 prostate
EKVX NSCLC = tested on: EKVX NSCLC
HCC-2998 colon = tested on: HCC-2998 colon
HCT-116 colon = tested on: HCT-116 colon
HCT-15 colon = tested on: HCT-15 colon
HOP-62 NSCLC = tested on: HOP-62 NSCLC
HS 578T breast = tested on: HS 578T breast
K-562 leukemia = tested on: K-562 leukemia
KM12 colon = tested on: KM12 colon
M14 melanoma = tested on: M14 melanoma
MDA-MB-435 = tested on: MDA-MB-435
MOLT-4 leukemia = tested on: MOLT-4 leukemia
NCI-H226 lung = tested on: NCI-H226 lung
NCI-H460 lung = tested on: NCI-H460 lung
NCI-H522 lung = tested on: NCI-H522 lung
OVCAR-3 ovarian = tested on: OVCAR-3 ovarian
OVCAR-4 ovarian = tested on: OVCAR-4 ovarian
OVCAR-5 ovarian = tested on: OVCAR-5 ovarian
OVCAR-8 ovarian = tested on: OVCAR-8 ovarian
PC-3 prostate = tested on: PC-3 prostate
RPMI-8226 leukemia = tested on: RPMI-8226 leukemia
RXF 393 renal = tested on: RXF 393 renal
SF-295 CNS = tested on: SF-295 CNS
SK-MEL-28 melanoma = tested on: SK-MEL-28 melanoma
SK-MEL-5 melanoma = tested on: SK-MEL-5 melanoma
SK-OV-3 ovarian = tested on: SK-OV-3 ovarian
SNB-19 CNS = tested on: SNB-19 CNS
SNB-75 CNS = tested on: SNB-75 CNS
SW-620 colon = tested on: SW-620 colon
T-47D breast = tested on: T-47D breast
TK-10 renal = tested on: TK-10 renal
UACC-257 melanoma = tested on: UACC-257 melanoma
UO-31 renal = tested on: UO-31 renal

Compound: Cc1cc(N2CCCCC2)nc(NC2CCCC(Nc3ccnc4cc(Cl)ccc34)C2)n1 (stereo not drawn)
- GI50 (786-0 renal): 1.27 µM
- TGI (786-0 renal): 2.59 µM
- GI50 (A498 renal): 1.67 µM
- TGI (A498 renal): 3.42 µM
- GI50 (ACHN renal): 1.54 µM
- TGI (ACHN renal): 2.98 µM
- GI50 (BT-549 breast): 1.58 µM
- TGI (BT-549 breast): 3.07 µM
- GI50 (CCRF-CEM leukemia): 1.48 µM
- TGI (CCRF-CEM leukemia): 10.6 µM
- GI50 (COLO 205 colon): 1.44 µM
- TGI (COLO 205 colon): 2.98 µM
- GI50 (DU-145 prostate): 1.45 µM
- TGI (DU-145 prostate): 3.1 µM
- GI50 (EKVX NSCLC): 1.54 µM
- TGI (EKVX NSCLC): 3.54 µM
- GI50 (HCC-2998 colon): 1.75 µM
- TGI (HCC-2998 colon): 3.4 µM
- GI50 (HCT-116 colon): 1.02 µM
- TGI (HCT-116 colon): 2.21 µM
- GI50 (HCT-15 colon): 0.825 µM
- TGI (HCT-15 colon): 2.17 µM
- GI50 (HOP-62 NSCLC): 1.46 µM
- TGI (HOP-62 NSCLC): 2.91 µM
- GI50 (HS 578T breast): 1.55 µM
- TGI (HS 578T breast): 3.95 µM
- GI50 (K-562 leukemia): 0.316 µM
- TGI (K-562 leukemia): 1.23 µM
- GI50 (KM12 colon): 1.79 µM
- TGI (KM12 colon): 3.52 µM
- GI50 (M14 melanoma): 1.66 µM
- TGI (M14 melanoma): 3.29 µM
- GI50 (MDA-MB-435): 1.32 µM
- TGI (MDA-MB-435): 2.73 µM
- GI50 (MOLT-4 leukemia): 1.21 µM
- TGI (MOLT-4 leukemia): 3.7 µM
- GI50 (NCI-H226 lung): 1.99 µM
- TGI (NCI-H226 lung): 3.9 µM
- GI50 (NCI-H460 lung): 1.39 µM
- TGI (NCI-H460 lung): 2.86 µM
- GI50 (NCI-H522 lung): 1.95 µM
- TGI (NCI-H522 lung): 3.75 µM
- GI50 (OVCAR-3 ovarian): 1.63 µM
- TGI (OVCAR-3 ovarian): 3.42 µM
- GI50 (OVCAR-4 ovarian): 1.4 µM
- TGI (OVCAR-4 ovarian): 3.29 µM
- GI50 (OVCAR-5 ovarian): 1.88 µM
- TGI (OVCAR-5 ovarian): 4.84 µM
- GI50 (OVCAR-8 ovarian): 1.73 µM
- TGI (OVCAR-8 ovarian): 3.27 µM
- GI50 (PC-3 prostate): 1.29 µM
- TGI (PC-3 prostate): 2.86 µM
- GI50 (RPMI-8226 leukemia): 0.472 µM
- TGI (RPMI-8226 leukemia): 2.56 µM
- GI50 (RXF 393 renal): 1.12 µM
- TGI (RXF 393 renal): 2.47 µM
- GI50 (SF-295 CNS): 1.52 µM
- TGI (SF-295 CNS): 2.92 µM
- GI50 (SK-MEL-28 melanoma): 1.8 µM
- TGI (SK-MEL-28 melanoma): 3.39 µM
- GI50 (SK-MEL-5 melanoma): 1.64 µM
- TGI (SK-MEL-5 melanoma): 3 µM
- GI50 (SK-OV-3 ovarian): 1.65 µM
- TGI (SK-OV-3 ovarian): 3.17 µM
- GI50 (SNB-19 CNS): 1.58 µM
- TGI (SNB-19 CNS): 3.44 µM
- GI50 (SNB-75 CNS): 1.39 µM
- TGI (SNB-75 CNS): 3.18 µM
- GI50 (SW-620 colon): 1.49 µM
- TGI (SW-620 colon): 3.14 µM
- GI50 (T-47D breast): 1.51 µM
- TGI (T-47D breast): 4.07 µM
- GI50 (TK-10 renal): 2.07 µM
- TGI (TK-10 renal): 4.25 µM
- GI50 (UACC-257 melanoma): 1.92 µM
- TGI (UACC-257 melanoma): 3.55 µM
- GI50 (UO-31 renal): 1.2 µM
- TGI (UO-31 renal): 2.48 µM
